For experiment [1], the target named is human PIM1 (Homo sapiens (Human), UniProt P11309). Nature of the experiment: Biochemical assay for inhibitors of PIM1 kinase activity (trans-phosphorylation, Dowex technique). The conditions noted are these: ATP 200 μM, Aktide 25 μM, enzyme 1 nM; read-out: PIM-1 IC50. A digest of the protocol:
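Full-length human PIM1 (1 nM) phosphorylates Aktide (25 μM) with 200 μM ATP plus 6 nM ^33P-γ-ATP in HEPES 50 mM pH 7.5, 10 mM MgCl2, 1 mM DTT, 3 μM NaVO3, 0.2 mg/mL BSA. Unreacted ATP captured on Dowex resin, supernatant β-counted; IC50 from ten-point 1:3 dilution sigmoidal fit.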

Experiment [2] concerns the target human PIM2 (Homo sapiens (Human), UniProt Q9P1W9). Description: PIM2 kinase inhibition assay: Dowex technique. It counts as biochemical. The conditions noted are these: ATP 4 μM, Aktide 5 μM, enzyme 1.5 nM; read-out: PIM-2 IC50. Put shortly: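 Full-length human PIM2 (1.5 nM) phosphorylated Aktide (5 μM) with 4 μM ATP plus 1 nM 33P-γ-ATP (final concentrations). Buffer: 50 mM HEPES pH 7.5, 1 mM MgCl2, 1 mM DTT, 3 μM Na3VO4, 0.2 mg/mL BSA. Radiolabel incorporation was read by the robotized Dowex method used for PIM1.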

Experiment [3] concerns BaF3-PIM1 cells. Nature of the experiment: In vitro cell proliferation assay (CellTiter-Glo), BaF3-PIM1. It counts as cell-based. The conditions noted are these: 72 hours. A general note: In ATP-based viability assays light output follows the ATP content of the culture.
For experiment [4], the system named is MV-4-11 cells. Description: In vitro cell proliferation assay (CellTiter-Glo), MV-4-11. The experiment is classed as cell-based. To be noted: Homo sapiens, MV4-11, 72 hours.

Molecules are shown by their SMILES.

Chain of human PIM2 (Q9P1W9 whole entry): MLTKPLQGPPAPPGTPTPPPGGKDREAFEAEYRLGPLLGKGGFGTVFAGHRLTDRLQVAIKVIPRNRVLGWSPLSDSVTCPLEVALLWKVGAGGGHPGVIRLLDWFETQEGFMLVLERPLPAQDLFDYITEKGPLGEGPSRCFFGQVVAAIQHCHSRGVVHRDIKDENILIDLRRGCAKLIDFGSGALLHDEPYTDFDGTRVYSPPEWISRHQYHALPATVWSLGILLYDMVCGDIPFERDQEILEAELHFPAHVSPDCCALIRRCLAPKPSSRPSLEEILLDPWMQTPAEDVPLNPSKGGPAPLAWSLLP
Chain of human PIM1 (P11309 whole entry): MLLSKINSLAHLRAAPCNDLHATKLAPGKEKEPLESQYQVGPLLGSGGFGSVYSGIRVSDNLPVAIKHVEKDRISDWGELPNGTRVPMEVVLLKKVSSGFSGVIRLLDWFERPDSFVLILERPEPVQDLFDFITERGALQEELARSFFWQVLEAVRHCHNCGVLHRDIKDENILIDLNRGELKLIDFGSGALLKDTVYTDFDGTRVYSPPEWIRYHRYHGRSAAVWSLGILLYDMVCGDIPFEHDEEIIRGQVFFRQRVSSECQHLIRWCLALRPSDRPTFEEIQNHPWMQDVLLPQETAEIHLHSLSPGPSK

For `CC(=O)NCC[C@H]1CNC(=O)c2cc(-c3cccc(OC(F)(F)F)c3)c(-c3ccccc3)n21` [Compound 142, N-(2-{(4S)-1-oxo-6-phenyl-7-[3-(trifluoromethoxy)phenyl]-1,2,3,4-tetrahydropyrrolo[1,2-a]pyrazin-4-yl}ethyl)acetamide], the IC50 (commonly the concentration that inhibits the measured activity by half) in experiment [1] amounted to 34 nM; in experiment [2] it was 174 nM; in experiment [3] it was 491 nM; in experiment [4], 4890 nM.
Turning to `CS(=O)(=O)NCC[C@H]1CNC(=O)c2cc(-c3cccc(OC(F)(F)F)c3)c(-c3ccccc3)n21` [Compound 147, N-(2-{(4S)-1-oxo-6-phenyl-7-[3-(trifluoromethoxy)phenyl]-1,2,3,4-tetrahydropyrrolo[1,2-a]pyrazin-4-yl}ethyl)methanesulfonamide], the IC50 in experiment [1] was 26 nM; in experiment [2] it was 172 nM; in experiment [3], 638 nM; in experiment [4], 3620 nM.

Values taken from patent publication US9181258B2, “Substituted 3,4-dihydropyrrolo[1,2-a]pyrazin-1(2H)-ones as protein kinase inhibitors” (NERVIANO MEDICAL SCIENCES S.R.L., priority 2011, dated 2015).
